Results: patent US20250127766A1, “METHODS AND COMPOSITIONS FOR TREATING CDKL5 DISORDER USING MONOAMINE OXIDASE INHIBITORS” (priority 2023, published 2025)

How the values were obtained:
[1] = system: proinflammatory cytokines and chemokines; assay: Production and release of proinflammatory cytokines and chemokines
DYRK1A = target: T1, DYRK1A (Homo sapiens, UniProt Q13627); assay: DYRK1A activity in harmine-treated organoids; type: cell-based
T1 construct: endogenous in cells; host or cells: CDKL5-deficient organoids
From the text: DYRK1A is a kinase that adds phosphate groups to proteins, thereby regulating their function. In CDKL5 deficiency, the lack of CDKL5-mediated regulation leads to overactivation of DYRK1A, resulting in dysregulated synaptic signaling and impaired neuronal communication. Harmine, by selectively inhibiting DYRK1A, restores the phosphorylation balance at the synapse, preventing over-phosphorylation of critical synaptic proteins. This modulation of synaptic signaling pathways by harmine contributes to the restoration of neuronal connectivity and the normalization of network activity in the treated organoids.

GABA receptor = settings: in vitro; cited from earlier work
CDKL5 knockout mice = assay: In vivo studies in CDKL5 knockout mice: synaptic transmission and neuronal connectivity
Experimental: This dosing regimen may serve as a reference point for establishing human doses. Extrapolating from these animal models, an initial dosing range for children of 1 to 2 mg/kg per day. This range can be adjusted depending on the individual's size and response, with a narrower range of 1.5 to 2 mg/kg per day for more precise dosing or even tighter to 1.75 to 2 mg/kg per day in specific cases. For broader clinical flexibility, a starting range of 0.5 to 3 mg/kg per day might be considered for pediatric populations, with adjustments based on individual tolerance and therapeutic outcomes.
In in vivo studies, animal models of neurodevelopmental disorders, including CDKL5 knockout mice, have been treated with liquiritin to assess its impact on synaptic transmission and neuronal connectivity.

microglial cells = assay: Microglial activity
From the text: This activation is associated with the release of proinflammatory cytokines, which promote neuroinflammatory processes.

[2] = system: CDKL5-deficient organoids; assay: Network activity of organoids derived from patient iPSCs; type: cell-based, human; settings: CDKL5-deficient organoids treated with harmine
Experimental: Another set of experiments was conducted using organoids derived from patient-induced pluripotent stem cells (iPSCs). Organoids are three-dimensional structures created from stem cells that closely resemble specific organs or tissues in terms of cellular composition, architecture, and function. These structures are widely used in biomedical research because they replicate the complexity of real organs, including their multiple cell types, tissue-specific structures, and the functions of the organ being modeled. In this study, organoids were generated to mimic the neuronal network of patients with CDKL5 deficiency disorder (CDD), providing a model system to explore the underlying mechanisms of the disorder and test potential therapeutic approaches.
Increased network excitability refers to an overactive state where neurons fire excessively, a characteristic associated with the seizure activity observed in CDD patients. Altered synchrony in the neuronal network reflects disrupted communication between neurons, contributing to cognitive impairments.

MAO-B = target: T2, MAO-B (Homo sapiens, UniProt P27338); assay: MAO-B inhibitory activity; type: biochemical
T2 sequence (P27338 1-520): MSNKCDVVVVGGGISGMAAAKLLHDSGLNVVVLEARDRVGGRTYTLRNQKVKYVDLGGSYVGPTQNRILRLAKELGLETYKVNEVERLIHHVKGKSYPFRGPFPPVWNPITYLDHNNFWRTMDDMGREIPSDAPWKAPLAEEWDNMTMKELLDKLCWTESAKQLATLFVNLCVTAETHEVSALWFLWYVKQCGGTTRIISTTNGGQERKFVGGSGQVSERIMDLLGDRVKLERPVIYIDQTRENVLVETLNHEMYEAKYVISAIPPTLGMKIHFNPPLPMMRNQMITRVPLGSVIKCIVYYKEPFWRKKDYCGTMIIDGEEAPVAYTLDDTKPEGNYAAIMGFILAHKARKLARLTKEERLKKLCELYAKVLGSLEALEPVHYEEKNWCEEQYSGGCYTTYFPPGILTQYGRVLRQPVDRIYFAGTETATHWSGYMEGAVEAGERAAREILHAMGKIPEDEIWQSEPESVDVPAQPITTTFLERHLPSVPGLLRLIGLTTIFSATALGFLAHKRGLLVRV
From the text: Though its MAO-B inhibitory activity is not as potent as that of other compounds such as safinamide, its ability to mildly modulate neurotransmitter levels, particularly dopamine and serotonin, may be beneficial in improving synaptic communication in CDD. In addition to its interaction with the monoamine pathways, liquiritin's anti-inflammatory properties may aid in reducing the neuroinflammation often observed in CDKL5-deficient patients. By targeting both neurotransmitter regulation and inflammatory processes, liquiritin offers a dual mechanism that may be effective in restoring synaptic balance.

EB2 phosphorylation = EB2 phosphorylation in CDKL5 knockout (KO) mouse model; type: in vivo; settings: knockout (KO) male and Het female mice; compared with vehicle (drinking water)
Experimental: In this context, EB2 phosphorylation acts as a functional molecular readout for the disease-modifying potential of small molecules, such as monoamine oxidase inhibitors (MAO-Is). When studying the efficacy of potential therapies for CDD, the measurement of EB2 phosphorylation levels can provide insight into whether the treatment is capable of compensating for the dysfunctional CDKL5 protein.
To evaluate the impact of MAO-Is on EB2 phosphorylation, an in vivo study was conducted using a well-established CDKL5 knockout (KO) mouse model, specifically the B6.129(FVB)-Cdk15tm1.1Joez/J strain from Jackson Laboratories. […] These mice provide a relevant model for testing how pharmacological agents such as MAO-Is can modulate neuronal activity and potentially restore normal function in the absence of CDKL5.
The increase in EB2 phosphorylation in these models provides compelling evidence that MAO-Is offer a disease-modifying therapeutic approach for patients with CDKL5 deficiency disorder, by targeting key molecular pathways involved in synaptic transmission and brain development.

[3] = system: oxidative damage of neurons; settings: cited from earlier work
[4] = system: seizures in animal models; settings: cited from earlier work

## COc1ccc2c(c1)[nH]c1c(C)nccc12 [harmine]
[1]
  production and release of proinflammatory cytokines and chemokines: inhibits the production and release of proinflammatory cytokines and chemokines
DYRK1A
  DYRK1A activity: modulation of DYRK1A activity
GABA receptor
  GABA receptor activity: increases GABA receptor activity
CDKL5 knockout mice; 30 mg/kg intraperitoneally, 5 days on, 2 days off, another 5-day cycle
  efficacy of the dosing regimen: has shown efficacy
CDKL5 knockout mice; CDKL5 knockout mice
  neurological outcomes: improved neurological outcomes
  synaptic transmission and neuronal connectivity: significant improvements in synaptic transmission and neuronal connectivity
Microglial cells
  microglial activity (overactivation): reducing their overactivation
[2]
  burst firing patterns: normalized the burst firing patterns
  network excitability: reduced network excitability
  neuronal synchrony: improved neuronal synchrony

## O=C1C[C@@H](c2ccc(O[C@@H]3O[C@H](CO)[C@@H](O)[C@H](O)[C@H]3O)cc2)Oc2cc(O)ccc21 [liquiritin]
MAO-B
  MAO-B inhibitory activity: weak MAO-B inhibitor
CDKL5 knockout mice; animal models including CDKL5 knockout mice
  synaptic function: moderate improvements in synaptic function
EB2 phosphorylation
  EB2 phosphorylation levels: effective in increasing EB2 phosphorylation levels
[3]
  antioxidant activity: demonstrated antioxidant activity

## C[C@H](NCc1ccc(OCc2cccc(F)c2)cc1)C(N)=O [safinamide]
[4]
  anticonvulsant properties: suppress seizures and provide neuroprotective effects
